Article PMC10657444, “Design and evaluation of tadpole-like conformational antimicrobial peptides” (Communications Biology, 2023)
Converted amounts (≈) assume the structure as drawn. Read-outs that look alike come from different tables or passages of the source.

Test system: K. pneumoniae ATCC 700603
Assay: microbe, parasite or virus in culture
Assay type: cell-based, Klebsiella pneumoniae
Conditions: for MIC: Klebsiella pneumoniae
Protocol: MRSA USA 300 and K. pneumoniae ATCC 700603 were employed to assess the development of resistance. From inoculated microtiter panels, an aliquot of the well with the highest concentration permitting growth was taken and back diluted in fresh media to a turbidity of a 0.5 McFarland standard. This suspension was then further diluted and used to inoculate a fresh MIC panel resulting in a final concentration of 5 × 10^6 CFU/mL. Panels were incubated according to CLSI guidelines (M07, 11th edition, 2018), MICs were recorded and the next inoculum was prepared from the well containing the highest concentration of drug that allowed growth in identical fashion as described above.

**Q.** What does the source list for `O=C(O)c1cn(C2CC2)c2cc(N3CCNCC3)c(F)cc2c1=O` [ciprofloxacin, reference compound]?
**A.** MIC (ATCC700603, 0 h, read-out: Concentration (MIC in drug resistance assay), K. pneumoniae ATCC 700603, day 0): 0.25 µg/mL (≈ 0.754 µM); MIC (ATCC700603, 24 h, read-out: Concentration (MIC in drug resistance assay), K. pneumoniae ATCC 700603, day 1): 0.5 µg/mL (≈ 1.51 µM); MIC (ATCC700603, 48 h, read-out: Concentration (MIC in drug resistance assay), K. pneumoniae ATCC 700603, day 2): 1 µg/mL (≈ 3.02 µM); MIC (ATCC700603, 72 h, read-out: Concentration (MIC in drug resistance assay), K. pneumoniae ATCC 700603, day 3): 0.5 µg/mL (≈ 1.51 µM); MIC (ATCC700603, 96 h, read-out: Concentration (MIC in drug resistance assay), K. pneumoniae ATCC 700603, day 4): 1 µg/mL (≈ 3.02 µM); MIC (ATCC700603, 120 h, read-out: Concentration (MIC in drug resistance assay), K. pneumoniae ATCC 700603, day 5): 0.5 µg/mL (≈ 1.51 µM); MIC (ATCC700603, 144 h, read-out: Concentration (MIC in drug resistance assay), K. pneumoniae ATCC 700603, day 6): 1 µg/mL (≈ 3.02 µM); MIC (ATCC700603, 168 h, read-out: Concentration (MIC in drug resistance assay), K. pneumoniae ATCC 700603, day 7): 1 µg/mL (≈ 3.02 µM); MIC (ATCC700603, 192 h, read-out: Concentration (MIC in drug resistance assay), K. pneumoniae ATCC 700603, day 8): 2 µg/mL (≈ 6.04 µM); MIC (ATCC700603, 216 h, read-out: Concentration (MIC in drug resistance assay), K. pneumoniae ATCC 700603, day 9): 1 µg/mL (≈ 3.02 µM); MIC (ATCC700603, 240 h, read-out: Concentration (MIC in drug resistance assay), K. pneumoniae ATCC 700603, day 10): 1 µg/mL (≈ 3.02 µM); MIC (ATCC700603, 264 h, read-out: Concentration (MIC in drug resistance assay), K. pneumoniae ATCC 700603, day 11): 2 µg/mL (≈ 6.04 µM); MIC (ATCC700603, 288 h, read-out: Concentration (MIC in drug resistance assay), K. pneumoniae ATCC 700603, day 12): 2 µg/mL (≈ 6.04 µM); MIC (ATCC700603, 312 h, read-out: Concentration (MIC in drug resistance assay), K. pneumoniae ATCC 700603, day 13): 2 µg/mL (≈ 6.04 µM); MIC (ATCC700603, 336 h, read-out: Concentration (MIC in drug resistance assay), K. pneumoniae ATCC 700603, day 14): 4 µg/mL (≈ 12.1 µM); MIC (ATCC700603, 360 h, read-out: Concentration (MIC in drug resistance assay), K. pneumoniae ATCC 700603, day 15): 4 µg/mL (≈ 12.1 µM); MIC (ATCC700603, 384 h, read-out: Concentration (MIC in drug resistance assay), K. pneumoniae ATCC 700603, day 16): 4 µg/mL (≈ 12.1 µM); MIC (ATCC700603, 408 h, read-out: Concentration (MIC in drug resistance assay), K. pneumoniae ATCC 700603, day 17): 4 µg/mL (≈ 12.1 µM); MIC (ATCC700603, 432 h, read-out: Concentration (MIC in drug resistance assay), K. pneumoniae ATCC 700603, day 18): 4 µg/mL (≈ 12.1 µM); MIC (ATCC700603, 456 h, read-out: Concentration (MIC in drug resistance assay), K. pneumoniae ATCC 700603, day 19): 4 µg/mL (≈ 12.1 µM); MIC (ATCC700603, 480 h, read-out: Concentration (MIC in drug resistance assay), K. pneumoniae ATCC 700603, day 20): 8 µg/mL (≈ 24.1 µM); MIC (ATCC700603, 504 h, read-out: Concentration (MIC in drug resistance assay), K. pneumoniae ATCC 700603, day 21): 4 µg/mL (≈ 12.1 µM); MIC (ATCC700603, 528 h, read-out: Concentration (MIC in drug resistance assay), K. pneumoniae ATCC 700603, day 22): 4 µg/mL (≈ 12.1 µM); MIC (ATCC700603, 552 h, read-out: Concentration (MIC in drug resistance assay), K. pneumoniae ATCC 700603, day 23): 4 µg/mL (≈ 12.1 µM); MIC (ATCC700603, 576 h, read-out: Concentration (MIC in drug resistance assay), K. pneumoniae ATCC 700603, day 24): 4 µg/mL (≈ 12.1 µM); MIC (ATCC700603, 600 h, read-out: Concentration (MIC in drug resistance assay), K. pneumoniae ATCC 700603, day 25): 4 µg/mL (≈ 12.1 µM); MIC (ATCC700603, 624 h, read-out: Concentration (MIC in drug resistance assay), K. pneumoniae ATCC 700603, day 26): 8 µg/mL (≈ 24.1 µM); MIC (ATCC700603, 648 h, read-out: Concentration (MIC in drug resistance assay), K. pneumoniae ATCC 700603, day 27): 8 µg/mL (≈ 24.1 µM); MIC (ATCC700603, 672 h, read-out: Concentration (MIC in drug resistance assay), K. pneumoniae ATCC 700603, day 28): 8 µg/mL (≈ 24.1 µM); MIC (ATCC700603, 696 h, read-out: Concentration (MIC in drug resistance assay), K. pneumoniae ATCC 700603, day 29): 8 µg/mL (≈ 24.1 µM); MIC (ATCC700603, read-out: Concentration (MIC in drug resistance assay), K. pneumoniae ATCC 700603, day 30): 8 µg/mL (≈ 24.1 µM); MIC (ATCC700603, read-out: Concentration (MIC in drug resistance assay), K. pneumoniae ATCC 700603, day 31): 8 µg/mL (≈ 24.1 µM); MIC (ATCC700603, read-out: Concentration (MIC in drug resistance assay), K. pneumoniae ATCC 700603, day 32): 8 µg/mL (≈ 24.1 µM); MIC (ATCC700603, read-out: Concentration (MIC in drug resistance assay), K. pneumoniae ATCC 700603, day 33): 8 µg/mL (≈ 24.1 µM); MIC (ATCC700603, read-out: Concentration (MIC in drug resistance assay), K. pneumoniae ATCC 700603, day 34): 8 µg/mL (≈ 24.1 µM); MIC (ATCC700603, read-out: Concentration (MIC in drug resistance assay), K. pneumoniae ATCC 700603, day 35): 16 µg/mL (≈ 48.3 µM); MIC (ATCC700603, read-out: Concentration (MIC in drug resistance assay), K. pneumoniae ATCC 700603, day 36): 16 µg/mL (≈ 48.3 µM); MIC (ATCC700603, read-out: Concentration (MIC in drug resistance assay), K. pneumoniae ATCC 700603, day 37): 16 µg/mL (≈ 48.3 µM); MIC (ATCC700603, read-out: Concentration (MIC in drug resistance assay), K. pneumoniae ATCC 700603, day 38): 16 µg/mL (≈ 48.3 µM); MIC (ATCC700603, read-out: Concentration (MIC in drug resistance assay), K. pneumoniae ATCC 700603, day 39): 16 µg/mL (≈ 48.3 µM); MIC (ATCC700603, read-out: Concentration (MIC in drug resistance assay), K. pneumoniae ATCC 700603, day 40): 16 µg/mL (≈ 48.3 µM); increase in MIC after 40 passages (serial passage at sub-MIC): 64 fold
